The record followed here is PubChem BioAssay AID488985 (Sanford-Burnham Center for Chemical Genomics, 2010).

Calls of active or inactive are those of the source.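 The calls were made as follows: active = mean EC50 below 10 µM; inactive = the rest.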

In this test the target is Apelin receptor (Homo sapiens) (UniProt P35414). Put plainly: APJ agonists, beta-arrestin recruitment, SAR follow-up, cell-based, luminescence, set 2 (AID 488985). Particulars: CHO-K1 AGTRL-1 PathHunter beta-arrestin. For orientation: Arrestin recruitment assays detect the binding of arrestin to an activated receptor.
Chain of Apelin receptor (Homo sapiens) (P35414 whole entry, looked up): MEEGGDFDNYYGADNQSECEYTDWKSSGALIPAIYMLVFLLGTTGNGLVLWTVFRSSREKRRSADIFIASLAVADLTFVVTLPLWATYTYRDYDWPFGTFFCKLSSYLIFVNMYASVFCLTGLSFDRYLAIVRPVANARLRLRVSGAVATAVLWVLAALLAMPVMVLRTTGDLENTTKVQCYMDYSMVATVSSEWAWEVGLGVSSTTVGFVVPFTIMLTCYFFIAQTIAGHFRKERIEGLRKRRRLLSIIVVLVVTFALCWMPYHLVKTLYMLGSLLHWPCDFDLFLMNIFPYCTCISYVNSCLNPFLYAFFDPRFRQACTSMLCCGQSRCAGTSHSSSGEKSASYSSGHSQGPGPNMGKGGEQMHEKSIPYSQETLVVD

A word on the EC50: it is the concentration giving half of the maximal effect.

For `CC1=C/C(=N/OS(=O)(=O)c2ccccc2)C(C(C)C)=CC1=O`, the EC50 was 11.9 µM.
As for `Cc1cc(O)c(C2CCCCC2)cc1N=O`, the figure is > 79 µM (inactive).
`Cc1cc(C)n2nc3nc(N4CCCCC4)nc(-c4ccccc4)c3c2n1`: the EC50 is > 79 µM (inactive).
For `CCCCN(C)CCn1c(=S)[nH]c2cc(OCC)c(OCC)cc2c1=O` the value was “inactive”.
As for `CCN1C(=O)/C(=C/C=C2/Sc3ccccc3N2CC)SC1=S`, the figure is > 79 µM (inactive); as for `CC(C)C1=CC(=NOS(=O)(=O)c2ccccc2)C=C(C(C)C)C1=O`, 13.1 µM.
As for `CCc1nnc(NC(=O)CSc2nc3cccnc3n2Cc2ccccc2)s1`, the figure is > 79 µM (inactive).
On to `CCOc1cc2[nH]c(=S)n(CCN3CCC(C)CC3)c(=O)c2cc1OCC`, for which the EC50 was > 79 µM (inactive).
As to `CCN1C(c2ccccc2)=C(c2ccccc2)S/C1=C\C=C1/SC(=S)N(C)C1=O`, the EC50 was 4.42 µM.
As for `CCOc1cc2[nH]c(=S)n(CCN3CCCCC3CC)c(=O)c2cc1OCC` (configuration not stated), the entry is “inactive”; as for `CC1=CC(=O)C=C/C1=N/OS(=O)(=O)c1ccc(C)cc1`, > 79 µM (inactive).
As for `CC1=CC(=NOS(=O)(=O)c2ccccc2)C(C)=CC1=O`, the figure is 6.07 µM; as for `CCOc1cc2[nH]c(=S)n(CCCC(=O)NCc3ccccn3)c(=O)c2cc1OCC`, “inactive”.
As for `CCOc1ccc(S(=O)(=O)Nc2nc(-c3ccccc3)cs2)cc1`, the figure is > 79 µM (inactive); as for `CCc1nnc(NC(=O)CSc2nc3cccnc3n2C2CCCCC2)s1`, “inactive”.
On to `CCN1C(=O)/C(=C/C=C2/SC(c3ccccc3)=C(c3ccccc3)N2CC)SC1=S`, for which the EC50 was > 79 µM (inactive).
For `CC1=CC(=O)C(C(C)(C)C)=C/C1=N/OS(=O)(=O)c1ccccc1` the value was 4.2 µM.
